The text below walks through data of US5723462A, “Certain fused pyrrolecarboxamides a new class of GABA brain receptor ligands” (Neurogen Corporation, priority 1996, dated 1998).

What is called Ki is the dissociation constant of the complex between target and ligand, obtained from inhibition or displacement.

For one test, the system named is GABA receptor.
Assay: not given
As to conditions: Tallman et al., 1978; cited from earlier work.
Regarding `CN1CCc2cc3c(cc2C1C1OC(=O)c2c1ccc1c2OCO1)OCO3` (single isomer, unassigned; (+)) [(+) bicuculline], the “blockade of the enhancement of benzodiazepine binding by GABA agonists” value is listed as “blocked”. Consider `CN1CCc2cc3c(cc2C1C1OC(=O)c2c1ccc1c2OCO1)OCO3` (single isomer, unassigned; (-)) [(-) bicuculline], for which the “blockade of the enhancement of benzodiazepine binding by GABA agonists” value was “much less active”.

Another test deals with GABAa receptor. The experiment in a line: GABAa receptor binding assay ([3H]-Flumazenil, RO15-1788 displacement, rat cortical tissue). Conditions: 0.5 nM 3H-RO15-1788, 30 min at 4° C. Here is the method: The pharmaceutical utility of compounds of this invention are indicated by the following assay for GABAa receptor binding activity.
Assays are carried out as described in Thomas and Tallman (J. Bio. Chem. 156: 9838-9842, J. Neurosci. 3: 433-440, 1983). Rat cortical tissue is dissected and homogenized in 25 volumes (w/v) of 0.05M Tris HCl buffer (pH 7.4 at 4° C.). The tissue homogenate is centrifuged in the cold (4° ) at 20,000×g for 20'. The supernatant is decanted and the pellet is rehomogenized in the same volume of buffer and again centrifuged at 20,000×g. The supernatant is decanted and the pellet is frozen at -20° C. overnight. The pellet is then thawed and rehomogenized in 25 volume (original wt/vol) of buffer and the procedure is carried out twice. The pellet is finally resuspended in 50 volumes (w/vol of 0.05M Tris HCl buffer (pH 7.4 at […]).
Incubations contain […] of tissue homogenate, […] of radioligand 0.5 nM (^3 H-RO15-1788 [^3 H-Flumazenil] specific activity 80 Ci/mmol), drug or blocker and buffer to a total volume of […]. Incubations are carried for 30 min at 4° C. then are rapidly filtered through GFB filters to separate free and bound ligand. Filters are washed twice with fresh 0.05M Tris HCl buffer (pH 7.4 at 4° C.) and counted in a liquid scintillation counter. 1.0 mM diazepam is added to some tubes to determine nonspecific binding. Data are collected in triplicate determinations, averaged and % inhibition of total specific binding is calculated. Total Specific Binding=Total-Nonspecific. In some cases, the amounts of unlabeled drugs is varied and total displacement curves of binding are carried out. Data are converted to IC50 or Ki.
In the case of `COc1ccc(NC(=O)c2c[nH]c3c2C(=O)CCC3)cn1` [Compound 1], the Ki came to 0.011 µM. `O=C(Nc1ccsc1)c1c[nH]c2c1C(=O)CCC2` [Compound 2, N-(3-thienyl)-4-oxo-4,5,6,7-tetrahydro-1H-indole-3-carboxamide] yielded a Ki of 0.003 µM.

The compound `COc1ccc2ccc(NC(=O)c3c[nH]c4c3C(=O)CCC4)nc2n1` [Compound 3, N-(2-methoxy-1,8-napthyridin-7-yl)-4-oxo-4,5,6,7-tetrahydro-1H-indole-3-carboxamide] showed a Ki of 0.066 µM. Still for that read-out and setting: under `O=C(Nc1ccccn1)c1c[nH]c2c1C(=O)CCC2` [Compound 4, N-(2-Pyridyl)-4-oxo-4,5,6,7-tetrahydro-1H-indole-3-carboxamide] stands 0.003 µM; under `O=C(Nc1nccs1)c1c[nH]c2c1C(=O)CCCC2` [Compound 5, N-(2-Thiazolyl)-4-oxo-1,4,5,6,7,8-hexahydro-cyclohepta[b]pyrrole-3-carboxamide], 0.002 µM; under `O=C(Nc1cccnc1)c1c[nH]c2c1C(=O)CCCC2` [Compound 6, N-(3-Pyridyl)-4-oxo-1,4,5,6,7,8-hexahydro-cyclohepta[b]pyrrole-3-carboxamide], 0.025 µM. For the compound `CC1(C)CCc2[nH]cc(C(=O)Nc3ccsc3)c2C1=O` [Compound 7, N-(3-Thienyl)-4-oxo-5,5-dimethyl-4,5,6,7-tetrahydro-1H-indole-3-carboxamide], the affinity corresponds to a Ki of 0.015 µM.

As to `CC1(C)CCc2[nH]cc(C(=O)Nc3nccs3)c2C1=O` [Compound 8, N-(2-Thiazolyl)-4-oxo-5,5-dimethyl-4,5,6,7-tetrahydro-1H-indole-3-carboxamide], the affinity, expressed as Ki, was 0.002 µM.

`Cc1cnc(NC(=O)c2c[nH]c3c2C(=O)CCC3)s1` [Compound 9, N-(5-Methyl-2-thiazolyl)-4-oxo-4,5,6,7-tetrahydro-1H-indole-3-carboxamide] came in with a Ki of 0.009 µM. Compound `O=C(Nc1ccc2ccc(Cl)nc2n1)c1c[nH]c2c1C(=O)CCC2` [Compound 10, N-(2-Chloro-1,8-napthyridin-7-yl)-4-oxo-4,5,6,7-tetrahydro-1H-indole-3-carboxamide] registered a Ki of 0.083 µM. Compound `Cc1cnc2nc(NC(=O)c3c[nH]c4c3C(=O)CCC4)ccc2c1` [Compound 11] yielded a Ki of 0.003 µM. As for `O=C(Nc1ccc2ccccc2n1)c1c[nH]c2c1C(=O)CCC2` [Compound 12, N-(2-Quinolinyl)-4-oxo-4,5,6,7-tetrahydro-1H-indole-3-carboxamide], the Ki came to 0.05 µM. `O=C(Nc1ccc2nccnc2c1)c1c[nH]c2c1C(=O)CCC2` [Compound 13, N-(6-Quinoxalinyl)-4-oxo-4,5,6,7-tetrahydro-1H-indole-3-carboxamide] registered a Ki of 0.064 µM.
